Patent publication US20250059205A1, “Heterocyclic Compounds and Methods of Use” (AMGEN INC., priority 2021, published 2025)
Like-named read-outs stand apart in the source and are kept apart here.

Tests used:
[1] = biological target: GDP-bound KRAS protein (aa 1-169), containing both G12D and C118A amino acid substitutions (Homo sapiens, UniProt P01116, C118A/G12D); assay: KRAS G12D Coupled Nucleotide Exchange Assay; type: biochemical; conditions: 2 h compound pre-incubation
Protocol: Following compound pre-incubation, purified SOS protein (aa 564-1049) and GTP (Roche 10106399001) were added to the assay wells and incubated for an additional 30 min. […] The assay plates were then read on a PerkinElmer EnVision Multilabel Reader, using AlphaScreen® technology, and data were analyzed using a 4-parameter logistic model to calculate IC50 values.

[2] = biological target: His-tagged KRAS G12D protein (Homo sapiens, UniProt P01116, G12D); assay: KRAS G12D TR-FRET Assay; type: binding
Chain of His-tagged KRAS G12D protein (P01116 1-188 isoform P01116-2 G12D): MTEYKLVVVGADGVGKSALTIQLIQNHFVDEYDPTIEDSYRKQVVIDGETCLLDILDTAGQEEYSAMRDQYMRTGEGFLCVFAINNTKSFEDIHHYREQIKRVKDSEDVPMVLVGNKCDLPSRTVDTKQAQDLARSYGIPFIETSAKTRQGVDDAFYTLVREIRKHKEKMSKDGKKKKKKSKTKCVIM

[3] = test system: Phosphorylation of ERK1/2 in AsPC-1 cells; assay: Phospho-ERK1/2 MSD Assay (AsPC-1 cells); type: cell-based; conditions: 2 hours treatment, read-out: p-ERK (AsPC-1 cells) IC50
Procedure, shortened: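 Read-out: MSD electrochemiluminescent detection of phosphorylated ERK1/2 in whole-cell lysates, fitted to a 4-parameter logistic curve for IC50. Prior to lysis, AsPC-1 cells (25,000 per well) received a 2 h compound dose-response at 37 °C.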

[4] = test system: Phosphorylation of ERK1/2 in A-427 cells; assay: Phospho-ERK1/2 MSD Assay (A-427 cells); type: cell-based; conditions: 2 h treatment, read-out: p-ERK (A427 cells) IC50
Procedure, shortened: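 ERK1/2 phosphorylation measured by Meso Scale whole-cell lysate assay after A-427 cells were exposed to a titration of compound for 2 h at 37 °C.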

Chain of GDP-bound KRAS protein (aa 1-169), containing both G12D and C118A amino acid substitutions (P01116 1-169 isoform P01116-2 G12D/C118A): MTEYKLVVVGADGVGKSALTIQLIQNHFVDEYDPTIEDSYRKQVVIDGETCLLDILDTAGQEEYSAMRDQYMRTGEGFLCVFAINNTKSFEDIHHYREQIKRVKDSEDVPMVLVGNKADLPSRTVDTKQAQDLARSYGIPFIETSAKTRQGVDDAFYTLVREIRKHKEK

Structure (SMILES) | Avg 2 h Coupled Exchange IC50 [1] [nM] | IC50 [2] [nM] | IC50 ([3]; Homo sapiens, ASPC1, 2 h) [nM] | IC50 ([4]; Homo sapiens, A-427, 2 h) [nM] | IC50 ([1]; read-out: Avg 2 h Coupled Exchange IC50) [nM] | IC50 [3] [nM] | IC50 [4] [nM]
N#Cc1cc2c(N3C[C@H]4CC[C@@H](C3)N4)nc(OC[C@@]34CCCN3C[C@H](F)C4)nc2c(F)c1-c1cc(O)cc2ccccc12 [Example 219, 4-((1R,5S)-3,8-Diazabicyclo[3.2.1]octan-3-yl)-8-fluoro-2-(((2R,7aS)-2-fluorotetrahydro-1H-pyrrolizin-7a(5H)-yl)methoxy)-7-(3-hydroxynaphthalen-1-yl)quinazoline-6-carbonitrile] | 2 | 1 | 531 | 92 | – | – | –
Nc1cc2ccccc2c(-c2ccc3c(N4CC5CCC(C4)N5)nc(OC[C@@]45CCCN4C[C@H](F)C5)nc3c2F)n1 [Example 220] | 22 | 60 | 4400 | 2860 | – | – | –
Oc1cc(-c2ccc3c(N4C[C@H]5CC[C@@H](C4)N5)nc(OC[C@@]45CCCN4C[C@H](F)C5)nc3c2F)c2ccccc2c1F [Example 221, 4-(4-((1R,5S)-3,8-diazabicyclo[3.2.1]octan-3-yl)-8-fluoro-2-(((2R,7aS)-2-fluorotetrahydro-1H-pyrrolizin-7a(5H)-yl)methoxy)quinazolin-7-yl)-1-fluoronaphthalen-2-ol] | 1 | 1 | 325 | 139 | – | – | –
O=c1cc(-c2ccc3c(N4C[C@H]5CC[C@@H](C4)N5)nc(OC[C@@]45CCCN4C[C@H](F)C5)nc3c2F)c2ccccc2[nH]1 [Example 222, 4-(4-((1R,5S)-3,8-diazabicyclo[3.2.1]octan-3-yl)-8-fluoro-2-(((2R,7aS)-2-fluorotetrahydro-1H-pyrrolizin-7a(5H)-yl)methoxy)quinazolin-7-yl)quinolin-2-ol] | 74 | 255 | > 10000 | > 10000 | – | – | –
Nc1ccc(C(F)(F)F)c(-c2ccc3c(N4C[C@H]5CC[C@@H](C4)N5)nc(OC[C@@]45CCCN4C[C@H](F)C5)nc3c2F)n1 [Example 223, 6-(4-((1R,5S)-3,8-diazabicyclo[3.2.1]octan-3-yl)-8-fluoro-2-(((2R,7aS)-2-fluorotetrahydro-1H-pyrrolizin-7a(5H)-yl)methoxy)quinazolin-7-yl)-5-(trifluoromethyl) pyridin-2-amine] | 15 | 44 | 3030 | 894 | – | – | –
Nc1ccc(C2CC2)c(-c2ccc3c(N4C[C@H]5CC[C@@H](C4)N5)nc(OC[C@@]45CCCN4C[C@H](F)C5)nc3c2F)n1 [Example 224, 6-(4-((1R,5S)-3,8-diazabicyclo[3.2.1]octan-3-yl)-8-fluoro-2-(((2R,7aS)-2-fluorotetrahydro-1H-pyrrolizin-7a(5H)-yl)methoxy)quinazolin-7-yl)-5-cyclopropylpyridin-2-amine] | 41 | 274 | > 10000 | 7620 | – | – | –
Fc1c(-c2cc(C(F)F)cc3ccccc23)ccc2c(N3C[C@H]4CC[C@@H](C3)N4)nc(OC[C@@]34CCCN3C[C@H](F)C4)nc12 [Example 225, 4-((1R,5S)-3,8-diazabicyclo[3.2.1]octan-3-yl)-7-(3-(difluoromethyl)naphthalen-1-yl)-8-fluoro-2-(((2R,7aS)-2-fluorotetrahydro-1H-pyrrolizin-7a(5H)-yl)methoxy) quinazoline] | 44 | 57 | 256 | 79 | – | – | –
Cc1ccc2[nH]nc(N)c2c1-c1ccc2c(N3C[C@H]4CC[C@@H](C3)N4)nc(OC[C@@]34CCCN3C[C@H](F)C4)nc2c1F [Example 226, 4-(4-((1R,5S)-3,8-diazabicyclo[3.2.1]octan-3-yl)-8-fluoro-2-(((2R,7aS)-2-fluorotetrahydro-1H-pyrrolizin-7a(5H)-yl)methoxy)quinazolin-7-yl)-5-methyl-1H-indazol-3-amine] | 7 | 44 | > 10000 | > 10000 | – | – | –
N#Cc1cc(O)cc(-c2c(F)cc3c(N4C[C@H]5CC[C@@H](C4)N5)nc(OC[C@@]45CCCN4C[C@H](F)C5)nc3c2F)c1C1CC1 [Example 227, 3-(4-((1R,5S)-3,8-Diazabicyclo[3.2.1]octan-3-yl)-6,8-difluoro-2-(((2R,7aS)-2-fluorotetrahydro-1H-pyrrolizin-7a(5H)-yl)methoxy)quinazolin-7-yl)-2-cyclopropyl-5-hydroxybenzonitrile] | 4 | 3 | 308 | 48 | – | – | –
Nc1cc(Cl)c(C(F)(F)F)c(-c2ccc3c(N4C[C@H]5CC[C@@H](C4)N5)nc(OC[C@@]45CCCN4C[C@H](F)C5)nc3c2F)n1 [Example 228, 6-(4-((1R,5S)-3,8-Diazabicyclo[3.2.1]octan-3-yl)-8-fluoro-2-(((2R,7aS)-2-fluorotetrahydro-1H-pyrrolizin-7a(5H)-yl)methoxy)quinazolin-7-yl)-4-chloro-5-(trifluoromethyl)pyridin-2-amine] | 2 | 2 | 302 | 77 | – | – | –
Cc1cc(N)nc(-c2ccc3c(N4C[C@H]5CC[C@@H](C4)N5)nc(OC[C@@]45CCCN4C[C@H](F)C5)nc3c2F)c1C(F)(F)F [Example 229, 6-(4-((1R,5S)-3,8-Diazabicyclo[3.2.1]octan-3-yl)-8-fluoro-2-(((2R,7aS)-2-fluorotetrahydro-1H-pyrrolizin-7a(5H)-yl)methoxy)quinazolin-7-yl)-4-methyl-5-(trifluoromethyl)pyridin-2-amine] | 4 | 7 | 486 | 222 | – | – | –
CCc1c(F)ccc2cc(O)cc(-c3cc(C)c4c(N5C[C@H]6CC[C@@H](C5)N6)nc(OC[C@@]56CCCN5C[C@H](F)C6)nc4c3F)c12 [Example 230] | – | 4 | – | – | 1 | 68 | 33
CCc1c(F)ccc2cc(O)cc(-c3cc(F)c4c(N5C[C@H]6CC[C@@H](C5)N6)nc(OC[C@@]56CCCN5C[C@H](F)C6)nc4c3F)c12 [Example 231, 4-(4-((1R,5S)-3,8-diazabicyclo[3.2.1]octan-3-yl)-5,8-difluoro-2-(((2R,7aS)-2-fluorotetrahydro-1H-pyrrolizin-7a(5H)-yl)methoxy)quinazolin-7-yl)-5-ethyl-6-fluoronaphthalen-2-ol] | 5 | 4 | 68 | 15 | – | – | –
